Like-named read-outs stand apart in the source and are kept apart here.
Tests used:
[1] = Plasma pharmacokinetics of MDPV and metabolites after i.p. MDPV administration; conditions: rat plasma
[2] = system: extracellular dopamine in nucleus accumbens; test: In vivo microdialysis in nucleus accumbens, dialysate dopamine; conditions: rat nucleus accumbens; i.v. 3 mg/kg (after 1.0 mg/kg at time zero)
male Sprague–Dawley rats [3] = test: Locomotor activity; type: in vivo, rat; conditions: rats undergoing microdialysis; i.v. 3 mg/kg (after 1.0 mg/kg at time zero)
DAT [4] = test: DAT uptake inhibition in rat brain synaptosomes; type: biochemical; conditions: for DAT/SERT ratio: (DAT IC50)^−1/(SERT IC50)^−1, higher values indicate greater DAT selectivity
[5] = system: extracellular dopamine in nucleus accumbens; conditions: rats, cited from earlier work; for Elevation in extracellular dopamine: i.v. 0.3 mg/kg MDPV, 3.0 mg/kg methylone
CYP 2D6 = conditions: read-out: CYP 2D6 inhibition IC50; in vitro; cited from earlier work
SERT = SERT uptake inhibition in rat brain synaptosomes; type: biochemical; conditions: relative to cocaine
[6] = cited from earlier work
NET = NET uptake inhibition in rat brain synaptosomes; type: biochemical; conditions: relative to cocaine
male Sprague–Dawley rats [7] = conditions: cited from earlier work
[8] = system: extracellular 5-HT in nucleus accumbens; conditions: rats; i.v. 3.0 mg/kg methylone; cited from earlier work
DAT [9] = conditions: S-MDPV versus R-MDPV; cited from earlier work
[10] = i.p. MDPV 0.5 mg/kg, mean±SEM, N=6
[11] = i.p. MDPV 1.0 mg/kg, mean±SEM, N=6
[12] = i.p. MDPV 2.0 mg/kg, mean±SEM, N=6
[13] = i.p. MDPV 2.0 mg/kg, mean±SEM, N=6, listed as MPDV

With `CCCC(C(=O)c1ccc(O)c(O)c1)N1CCCC1` (centres unmarked) [3,4-Catechol-PV, 3,4-dihydroxypyrovalerone] the AUC [1, 10] was 2,822±415 min μg/L, the Cmax [1, 10] was 14 ± 2 ng/mL and the Tmax [1, 10] was 2.67 ± 0.417 h. For the same molecule, the AUC [1, 11] was 8,317±589 min μg/L, the Cmax [1, 11] was 36 ± 4 ng/mL and the Tmax [1, 11] was 3.15 ± 0.983 h. The AUC [1, 12] was 12,762±1,625 min μg/L, the Cmax [1, 12] was 46 ± 9 ng/mL and the Tmax [1, 12] was 3.43 ± 0.417 h. For the same molecule, the “Effect on extracellular dopamine” value [2] was “small, albeit significant, elevations” and the Effect on ambulation (male Sprague–Dawley rats [3]) was “no change in ambulation”.

For `CCCC(C(=O)c1ccc(O)c(OC)c1)N1CCCC1` (centres unmarked) [4-OH-3-MeO-PV, 4-hydroxy-3-methoxypyrovalerone], the AUC [1, 10] was 14,657±2,577 min μg/L, the Cmax [1, 10] was 57 ± 7 ng/mL and the Tmax [1, 10] was 2.8 ± 0.45 h. The AUC [1, 11] was 28,168±3,373 min μg/L, the Cmax [1, 11] was 135 ± 23 ng/mL and the Tmax [1, 11] was 4.33 ± 0.4 h. The AUC [1, 12] was 51,925±7,946 min μg/L, the Cmax [1, 12] was 198 ± 31 ng/mL and the Tmax [1, 12] was 4 ± 0.9 h. The DAT/SERT ratio (DAT [4]) was >12.

`CC(N)Cc1ccccc1` (centres unmarked) [Amphetamine, reference compound] showed a DAT/SERT ratio (DAT [4]) of 36.75.

In the case of `COC(=O)[C@H]1[C@@H](OC(=O)c2ccccc2)C[C@@H]2CC[C@H]1N2C` [Cocaine, reference compound], the DAT/SERT ratio (DAT [4]) is reported as 1.48.

In the case of `CCCC(C(=O)c1ccc2c(c1)OCO2)N1CCCC1` (centres unmarked) [MDPV, 3,4-methylenedioxypyrovalerone], the “Elevation in extracellular dopamine” value [5] is listed as “threefold”, the “Potency to increase dialysate dopamine compared to cocaine” value ([5]; i.v. administration) is listed as “tenfold more potent” and the IC50 (CYP 2D6) is listed as 1.3 µM. For the same molecule, the AUC [1, 10] was 1,114 min μg/L, the Cmax [1, 10] was 20 ± 5 ng/mL and the Tmax [1, 10] was 0.167 ± 0 h. The t1/2 [1, 10] was 1.53 ± 0.12 h, the AUC ([1]; i.p. MDPV 0.5 mg/kg, mean±SEM, N=6, listed as MPDV) was 1,114±330 min μg/L and the AUC [1, 11] was 2,858±859 min μg/L. For the same molecule, the Cmax [1, 11] was 54 ± 18 ng/mL, the Tmax [1, 11] was 0.167 ± 0 h and the t1/2 [1, 11] was 1.32 ± 0.217 h. The AUC [1, 12] was 8,726 min μg/L, the Cmax [1, 12] was 135 ± 29 ng/mL and the Tmax [1, 12] was 0.167 ± 0 h. For the same molecule, the AUC [1, 13] was 8,726±1,877 min μg/L, the t1/2 [1, 13] was 1.65 ± 0.233 h and the “Time at which Cmax is achieved” value ([1]; i.p. MDPV (0.5, 1, 2 mg/kg)) was ≤ 10 min. For the same molecule, the Cmax ([1]; read-out: Cmax (molar), i.p. MDPV 2 mg/kg) was ~500 nM, the “Potency as inhibitor at SERT compared to cocaine” value (SERT) was “tenfold less potent” and the “Half-life (t1/2)” value ([6]; rat plasma, 2 mg/kg s.c. MDPV) was “about 80 min”. The “Plasma Cmax” value ([6]; rat, 2 mg/kg s.c. MDPV) was 271 ng/mL, the “Time of maximal plasma concentration (Cmax) after injection” value ([6]; rat, s.c. MDPV (0.5, 1, 2 mg/kg)) was 15 to 20 min and the Cmax ([6]; read-out: Plasma Cmax (molar), rat, 2 mg/kg s.c. MDPV) was ~1000 nM. The “Potency as inhibitor at NET compared to cocaine” value (NET) was “tenfold more potent”, the “Potency as locomotor stimulant compared to cocaine” value (male Sprague–Dawley rats [7]) was “about tenfold more potent” and the DAT/SERT ratio (DAT [4]) was 816.82. The “Potency as inhibitor at DAT compared to cocaine” value (DAT [4]; rat brain synaptosomes, relative to cocaine) was 50 fold.

Work on `CNC(C)C(=O)c1ccc(C)cc1` (centres unmarked) [Mephedrone, 4-methyl-N-methylcathinone, reference compound] yielded a DAT/SERT ratio (DAT [4]) of 0.55.

In the case of `CNC(C)C(=O)c1ccc2c(c1)OCO2` (centres unmarked) [Methylone, 3,4-methylenedioxy-N-methylcathinone, reference compound], the “Elevation in extracellular dopamine” value [5] is listed as “threefold”, the “Elevation in extracellular 5-HT” value [8] is listed as “tenfold” and the DAT/SERT ratio (DAT [4]) is listed as 0.77.

In the case of `CCC[C@@H](C(=O)c1ccc2c(c1)OCO2)N1CCCC1` [S-MDPV], the “Potency at inhibiting DAT compared to R-MDPV” value (DAT [9]) is listed as 100 times.

With `CCC(C(=O)c1ccccc1)N1CCCC1` (stereo not drawn) [α-PBP, α-pyrrolidinobutiophenone] the DAT/SERT ratio (DAT [4]) was >159.

In the case of `CC(C(=O)c1ccccc1)N1CCCC1` (stereo not drawn) [α-PPP, α-pyrrolidinopropiophenone], the DAT/SERT ratio (DAT [4]) is reported as >50.

In the case of `CCCC(C(=O)c1ccccc1)N1CCCC1` (stereo not drawn) [α-PVP, α-pyrrolidinovalerophenone], the DAT/SERT ratio (DAT [4]) is reported as >833.

Source: article PMC5392131 (Current topics in behavioral neurosciences, 2017)
